Laboratory results reported in ChEMBL document CHEMBL1148854, “Synthesis and biological evaluation of unprecedented classes of spiro-beta-lactams and azido-beta-lactams as acyl-CoA:cholesterol acyltransferase inhibitors” (Bioorg Med Chem Lett, 2007).
pIC50: −log10 of the molar value.

What was measured:
[1] = target: T1, Acyl-CoA:cholesterol acyltransferase (Oryctolagus cuniculus, UniProt Q95214); assay: Inhibition of ACAT in Albino rabbit intestinal mucosa
T1 sequence (Q95214 whole entry): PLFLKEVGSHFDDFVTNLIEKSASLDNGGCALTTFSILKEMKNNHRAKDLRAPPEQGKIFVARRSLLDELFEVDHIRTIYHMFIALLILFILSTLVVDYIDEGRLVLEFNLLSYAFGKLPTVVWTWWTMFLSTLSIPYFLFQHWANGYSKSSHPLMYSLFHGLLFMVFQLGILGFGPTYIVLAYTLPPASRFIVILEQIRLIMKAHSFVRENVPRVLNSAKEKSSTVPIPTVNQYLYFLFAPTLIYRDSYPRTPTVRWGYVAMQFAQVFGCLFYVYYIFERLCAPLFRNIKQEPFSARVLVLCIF

[2] = target: T2, Acyl-CoA:cholesterol acyltransferase (Oryctolagus cuniculus) (UniProt Q95214); assay: Inhibition of ACAT in Albino rabbit intestinal mucosa at 10 uM
T2 sequence (whole entry): T1 sequence (Q95214 whole entry)

pIC50 [1] | inhibition [2] | Structure (SMILES)
4.77 | – | CC[C@H](C)C(=O)O[C@H]1C[C@@H](C)C=C2C=C[C@H](C)[C@H](CC[C@@H]3C[C@@H](O)CC(=O)O3)[C@H]21 [LOVASTATIN]
– | 65% | CC[C@@H](N=[N+]=[N-])[C@@H](O)[C@]1(Br)C(=O)N([C@@H](C)c2ccccc2)[C@H]1c1ccccc1
– | 60% | CC[C@H](N=[N+]=[N-])[C@H](O)[C@]1(Br)C(=O)N([C@@H](C)c2ccccc2)[C@H]1c1ccccc1
